Measured values from patent US9200319B2, “Nucleotides and nucleosides and methods for their use in DNA sequencing” (Lasergen, Inc., priority 2008, dated 2015).
Where “and” joins values, the source holds several entries; their conditions need not be identical. Equal entries are not always repeated. Where two headings read alike, the source gives them in different places.

Key:
[1] = biological target: T1, THERMINATOR™ DNA polymerase (Thermococcus sp., UniProt Q56366, A485L/D141A/E143A); test: biochemical; set-up: species or system Thermococcus species 9° N-7
T1 construct: purchased New England Biolabs
T1 sequence (Q56366 whole entry D141A/E143A/A485L): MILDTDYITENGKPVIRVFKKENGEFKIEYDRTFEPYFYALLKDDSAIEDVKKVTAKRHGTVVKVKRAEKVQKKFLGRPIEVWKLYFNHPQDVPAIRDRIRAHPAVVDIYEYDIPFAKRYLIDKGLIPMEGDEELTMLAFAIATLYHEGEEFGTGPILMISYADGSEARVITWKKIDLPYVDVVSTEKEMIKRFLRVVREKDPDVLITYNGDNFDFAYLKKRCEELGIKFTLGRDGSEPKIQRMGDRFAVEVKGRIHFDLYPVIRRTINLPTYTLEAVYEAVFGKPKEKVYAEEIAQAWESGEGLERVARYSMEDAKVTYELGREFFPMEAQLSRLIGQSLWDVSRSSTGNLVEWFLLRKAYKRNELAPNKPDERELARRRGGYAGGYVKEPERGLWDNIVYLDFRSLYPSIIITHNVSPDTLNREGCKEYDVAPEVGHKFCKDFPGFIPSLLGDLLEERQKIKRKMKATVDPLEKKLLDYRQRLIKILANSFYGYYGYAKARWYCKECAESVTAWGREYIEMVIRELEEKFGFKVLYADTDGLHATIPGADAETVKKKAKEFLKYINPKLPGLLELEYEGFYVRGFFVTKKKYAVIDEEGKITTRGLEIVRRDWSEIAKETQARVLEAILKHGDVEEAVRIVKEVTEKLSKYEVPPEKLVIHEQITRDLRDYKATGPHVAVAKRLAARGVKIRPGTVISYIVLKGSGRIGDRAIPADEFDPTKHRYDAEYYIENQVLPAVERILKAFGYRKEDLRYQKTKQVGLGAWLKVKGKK
Experimental: Natural and modified nucleotides were tested for incorporation efficiency using the “polymerase end point assay” (Wu et al., 2007, which is incorporated herein by reference). This assay examines incorporation efficiency on matched and mismatched template bases. Incorporation efficiency is measured by determining the concentration at which the compound incorporates on half the primer-template complexes (IC50). Titrations of increasing compound concentration were performed to generate curves from which the IC50 can be determined.
(§1) The sequence of the template DNA is selected depending on which compound will be tested. For example, the first interrogation base after the primer in the template sequence is the complement base of the compound when measuring incorporation efficiency, and one of three mismatched bases when measuring mismatch discrimination properties.
(§2) To the annealed reaction, a DNA polymerase (e.g., THERMINATOR™ DNA polymerase, 0.25 units per reaction, New England Biolabs), 1× Thermopol Buffer, and a known concentration of either natural or modified nucleotide are added to each 10 μL reaction and incubated at 75° C. for 10 minutes, cooled on ice, and quenched with 10 μL of stop solution (98% formamide: 10 mM Na2EDTA, pH=8.0, 25 mg/ml Blue Dextran). Stopped reactions are heated to 75° C. for 30 seconds to denature the DNA, and then placed on ice. The extension products are analyzed on a 10% Long Ranger (Lonza) polyacrylamide gel using an ABI model 377 DNA sequencer. Additional details are provided in Example 1, below.
Polymerase Assays. Natural and modified nucleotides were tested for incorporation efficiency using the “polymerase end point assay” (Wu et al., 2007, which is incorporated herein by reference). This assay examines incorporation efficiency on matched and mismatched template bases. Incorporation efficiency is measured by determining the concentration at which the compound incorporates on half the primer-template complexes (IC50). Titrations of increasing compound concentration were performed to generate curves from which the IC50 can be determined.
The assay is performed by first annealing 5 nM of BODIPY-FL labeled primer with 40 nM template DNA in 1× Thermopol Buffer (20 mM Tris-HCl, pH 8.8; 10 mM (NH4)2SO4; 10 mM KCl; 2 mM MgSO4; 0.1% Triton X-100, New England BioLabs).
as §1, with “The temperature cycle to complete primer annealing is 80° C. for 30 seconds, 57° C. for 30 seconds, then cooling to 4° C. The” for “The”
as §2, with “sequencer.” for “sequencer. Additional details are provided in Example 1, below.”

[2] = biological target: T1, THERMINATOR™ DNA polymerase; test: termination assay, weighted sum analysis on homopolymer repeat template; assay type: biochemical, Thermococcus species 9° N-7; settings: 1.0 = complete termination after a single incorporation
Experimental: A weighted sum of 1.0 represents complete termination after a single incorporation, while a value greater than 1.0 indicates incorporation beyond the +1 position (e.g. nucleotide read through). […] The assay is performed as described above for the polymerase end-point assay, except that the template used is a homopolymer repeat, thereby allowing for multiple incorporations of a given nucleotide compound.

[3] = IC50 for incorporation, concentration at which the compound incorporates on half the primer-template complexes, complement template base
[4] = adjusted IC50 used to set the concentrations of the termination assay, read-out: Adj IC50 Conc
[5] = concentration at which the compound incorporates on half the primer-template complexes, complement template base, read-out: IC50 for incorporation
[6] = Adj IC50 Conc (nM), adjusted IC50 used to set the concentrations of the termination assay

Compound | IC50 [1, 3] [nM] | IC50 [1, 4] [nM] | IC50 [1, 5] [nM] | Average Weighted Sum ± SD ([2]; 1x IC50) | Average Weighted Sum ± SD ([2]; 5x IC50) | Average Weighted Sum ± SD ([2]; 25x IC50) | IC50 [1, 6] [nM]
CC(C)[C@H](OCc1cn([C@H]2C[C@H](O)[C@@H](COP(=O)(O)OP(=O)(O)OP(=O)(O)O)O2)c(=O)nc1N)c1ccccc1[N+](=O)[O-] [3p065, 5-[(S)-1-(2-nitrophenyl)-2-methyl-propyloxy]methyl-2′-deoxycytidine-5′-triphosphate] | 1.1 ± 0.1 |  |  |  |  |  | 
CC(OCc1cn([C@H]2C[C@H](O)[C@@H](COP(=O)(O)OP(=O)(O)OP(=O)(O)O)O2)c(=O)[nH]c1=O)c1ccccc1[N+](=O)[O-] (mixture of isomers) [2p043, 5-(α-methyl-nitrobenzyl-oxymethyl)-2′-dUTP] |  | 1.7 | 1.7 ± 0.2 | 0.53 ± 0.06 | 1.1 ± 0.0 | 1.7±0.1 | 
Cc1ccccc1COCc1cn([C@H]2C[C@H](O)[C@@H](COP(=O)(O)OP(=O)(O)OP(=O)(O)O)O2)c(=O)[nH]c1=O [5p147, 5-(2-methylbenzyloxy)methyl-2′-deoxyuridine-5′-triphosphate] | 1.4 |  |  | 0.51 ± 0.1 | 1.5 ± 0.3 | 2.6 ± 0.4 | 1.4
CC(C)(C)c1ccccc1COCc1cn([C@H]2C[C@H](O)[C@@H](COP(=O)(O)OP(=O)(O)OP(=O)(O)O)O2)c(=O)[nH]c1=O [6p024, 5-(2-tert-butylbenzyloxy)methyl-2′-deoxyuridine-5′-triphosphate] | 0.7 |  |  | 0.44 ± 0.1 | 1.2 ± 0.1 | 1.9 ± 0.1 | 0.7
CC(C)c1ccccc1COCc1cn([C@H]2C[C@H](O)[C@@H](COP(=O)(O)OP(=O)(O)OP(=O)(O)O)O2)c(=O)[nH]c1=O [5p149, 5-(2-isopropylbenzyloxy)methyl-2′-deoxyuridine-5′-triphosphate] | 1.4 |  |  | 0.53 ± 0.1 | 1.3 ± 0.1 | 2.2 ± 0.2 | 1.4
CC(C)[C@H](OCc1cn([C@H]2C[C@H](O)[C@@H](COP(=O)(O)OP(=O)(O)OP(=O)(O)O)O2)c(=O)[nH]c1=O)c1ccccc1[N+](=O)[O-] [3p063, 5-[(S)-1-(2-nitrophenyl)-2-methyl-propyloxy]methyl-2′-deoxyuridine-5′-triphosphate] | 2 |  |  |  |  |  | 
CC(Oc1nc(N)nc2c1ncn2[C@H]1C[C@H](O)[C@@H](COP(=O)(O)OP(=O)(O)OP(=O)(O)O)O1)c1ccccc1[N+](=O)[O-] (mixture of isomers) [2p143, O^6-(α-methyl-2-nitrobenzyl)-2′-dGTP] | 10 |  |  |  |  |  | 
5-(α-isopropyl-2-nitrobenzyloxy)methyl-2′-dUTP-6-FAM [6p094] |  |  | 8.1 ± 0.2 |  |  |  | 
Nc1ccn([C@H]2C[C@H](O)[C@@H](COP(=O)(O)OP(=O)(O)OP(=O)(O)O)O2)c(=O)n1 [dCTP, reference compound] |  |  | 3 ± 0.6 |  |  |  | 
C^7-(α-isopropyl-2-nitrobenzyloxy)methyl-2′-dATP-6-CR110 [5p130-LP2] |  |  | 15 ± 3 |  |  |  | 
CC(C)(C)C(OCc1cn([C@H]2C[C@H](O)[C@@H](COP(=O)(O)OP(=O)(O)OP(=O)(O)O)O2)c(=O)[nH]c1=O)c1ccccc1[N+](=O)[O-] (single isomer, unassigned) [3p075, 5-[(R or S)-1-(2-nitrophenyl)-2,2-dimethyl-1-propyloxy]methyl-2′-deoxyuridine-5′-triphosphate] | 3 |  |  |  |  |  | 
CC(C)C(OCc1cn([C@H]2C[C@H](O)[C@@H](COP(=O)(O)OP(=O)(O)OP(=O)(O)O)O2)c(=O)[nH]c1=O)c1ccccc1[N+](=O)[O-] (mixture of isomers) [2p148, 5-(α-isopropyl-2-nitrobenzyloxy)methyl-2′-dUTP] |  |  | 2.3 ± 0.1 | 0.59 ± 0.02 | 0.99 ± 0.01 | 1.0 and 1.0 ± 0.01 | 2.1
6-ROX labeled 7-{(R)-1-[4-(3-amino-1-propynyl)-2-nitrophenyl]-2-methyl-propyloxy}methyl-7-deaza-2′-deoxyguanosine-5′-triphosphate [6p034] |  |  | 7.4 ± 0.1 |  |  |  | 
5-(α-isopropyl-2-nitrobenzyloxy)methyl-2′-dUTP-6-ROX [6p044] |  |  | 18 ± 1 |  |  |  | 
Nc1nc(OCc2ccccc2[N+](=O)[O-])c2ncn([C@H]3C[C@H](O)[C@@H](COP(=O)(O)OP(=O)(O)OP(=O)(O)O)O3)c2n1 [2p108, O^6-(2-nitrobenzyl)-2′-dGTP] | 4 ± 0.7 |  |  |  |  |  | 
CC(C)C(Nc1ncnc2c1ncn2[C@H]1C[C@H](O)[C@@H](COP(=O)(O)OP(=O)(O)OP(=O)(O)O)O1)c1ccccc1[N+](=O)[O-] (single isomer, unassigned) [6p063, N^6-(α-isopropyl-2-nitrobenzyl)-2′-dATP] | 12 ± 1 |  |  |  |  |  | 
CC(Nc1ncnc2c1ncn2[C@H]1C[C@H](O)[C@@H](COP(=O)(O)OP(=O)(O)OP(=O)(O)O)O1)c1ccccc1[N+](=O)[O-] (mixture of isomers) [3p006, N^6-(α-methyl-2-nitrobenzyl)-2′-dATP] | 8.5 ± 1.8 |  |  |  |  |  | 
O=c1[nH]c(=O)n([C@H]2C[C@H](O)[C@@H](COP(=O)(O)OP(=O)(O)OP(=O)(O)O)O2)cc1COCc1ccccc1 [5p145, 5-(benzyloxy)methyl-2′-deoxyuridine-5′-triphosphate] | 1.4 |  |  | 0.43 ± 0.1 | 1.3 ± 0.3 | 2.9 and 2.9 ± 0.4 | 1.4
5-(α-isopropyl-2-nitrobenzyloxy)methyl-2′-dUTP-5-R6G [6p005] |  |  | 15 ± 1 |  |  |  | 
CC(C)C(OCc1cn([C@H]2C[C@H](O)[C@@H](COP(=O)(O)OP(=O)(O)OP(=O)(O)O)O2)c(=O)[nH]c1=O)c1ccccc1 (mixture of isomers) [5p111, 5-(α-isopropyl-benzyloxy)methyl-2′-dUTP] | 0.8 |  |  | 0.44 ± 0.02 | 0.96 ± 0.01 | 1.1 and 1.1 ± 0.03 | 0.8
Cc1cn([C@H]2C[C@H](O)[C@@H](COP(=O)(O)OP(=O)(O)OP(=O)(O)O)O2)c(=O)[nH]c1=O [dTTP, reference compound] |  | 2.1 |  | 0.68 | 3.0 | 12.2 | 
Nc1ncnc2c1c(COCc1ccccc1[N+](=O)[O-])cn2[C@H]1C[C@H](O)[C@@H](COP(=O)(O)OP(=O)(O)OP(=O)(O)O)O1 [5p085, 7-(2-nitrobenzyloxy)methyl-7-deaza-2′-deoxyadenosine-5′-triphosphate] | 3.6 ± 0.3 |  |  |  |  |  | 
O=c1[nH]c(=O)n([C@H]2C[C@H](O)[C@@H](COP(=O)(O)OP(=O)(O)OP(=O)(O)O)O2)cc1COCc1ccccc1-c1ccccc1 [6p010, 5-(2-phenylbenzyloxy)methyl-2′-deoxyuridine-5′-triphosphate] | 1.4 |  |  | 0.46 ± 0.1 | 1.1 ± 0.1 | 1.7 and 1.7 ± 0.3 | 1.4
